Assay results from patent US10508077B2 (FORMA Therapeutics, Inc., priority 2015, dated 2019).
Structures can show the parent of a compound that is named as a salt.

Experiments:
[1] = target: T1, Full length human recombinant HDAC8 protein (Homo sapiens, UniProt Q9BY41); test: In vitro histone deacetylase assay: enzymatic HDAC8 assay, electrophoretic mobility shift; assay type: biochemical; settings: substrate RHKK(Ac)-NH2, 1 nM enzyme, compounds listed under IC50 range headings
T1 construct: Full length human recombinant HDAC8 protein was expressed in baculoviral system; made in house
T1 sequence (Q9BY41 1-377): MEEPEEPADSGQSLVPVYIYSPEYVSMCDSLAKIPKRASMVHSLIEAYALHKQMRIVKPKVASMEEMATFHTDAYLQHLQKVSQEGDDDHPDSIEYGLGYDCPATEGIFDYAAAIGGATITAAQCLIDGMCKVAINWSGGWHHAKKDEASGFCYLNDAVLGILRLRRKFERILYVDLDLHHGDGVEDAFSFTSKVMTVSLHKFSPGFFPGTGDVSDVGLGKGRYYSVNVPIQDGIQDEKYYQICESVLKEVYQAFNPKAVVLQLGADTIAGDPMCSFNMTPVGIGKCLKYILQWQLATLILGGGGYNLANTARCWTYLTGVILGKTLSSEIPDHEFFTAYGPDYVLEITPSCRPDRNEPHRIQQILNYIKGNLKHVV
In short: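 Baculovirus-expressed full-length human HDAC8 (1 nM) deacetylated 2 µM fluorescent RHKK(Ac)-NH2 peptide in pH 7.5 HEPES, 1% DMSO, at 25 °C, with 12 compound concentrations at 3× spacing. SDS-quenched; product and substrate resolved by microfluidic electrophoresis, P/(S+P) converted to percent inhibition, and IC50 obtained by 4-parameter fit.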

[2] = target: T2, Recombinant N-terminal GST tag full-length human HDAC8 (Homo sapiens, UniProt Q9BY41); test: HDAC8 probe binding assay, time resolved fluorescence (TRF); settings: fluorescein labeled pan-HDAC inhibitor probe, 16 hours incubation, compounds listed under IC50 range headings
T2 construct: Recombinant N-terminal GST tag full-length human HDAC8; purchased SignalChem H90-30G-1000; host or cells: Sf9 insect cells (baculovirus)
T2 sequence (Q9BY41 1-377): T1 sequence (Q9BY41 1-377)
In short: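 TR-FRET probe displacement using GST-tagged full-length human HDAC8 (Sf9-expressed, 2.5 nM) with 1.5 nM fluorescein-labelled pan-HDAC inhibitor probe and anti-GST terbium, in HEPES pH 7.5 buffer with GSH, BGG, Triton X-100. Compounds 25 μM–1.3 nM, 10-point; 16 h at room temperature. IC50 from 4-parameter fit of % inhibition versus no-enzyme and DMSO controls.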

Structure (SMILES)	IC50 [1] [nM]	IC50 [2] [nM]
O=C(/C=C/c1ccccc1N1CCN(C(=O)C2(c3cccnc3)CC2)CC1)NO [Example I-321, (E)-N-hydroxy-3-(2-(4-(1-(pyridin-3-yl)cyclopropane-1-carbonyl)piperazin-1-yl)phenyl)acrylamide]	< 1000	≤ 1000
O=C(/C=C/c1ccccc1NC(=O)c1cnc(N2CCOCC2)s1)NO [Example I-319, (E)-N-(2-(3-(hydroxyamino)-3-oxoprop-1-en-1-yl)phenyl)-2-morpholinothiazole-5-carboxamide]	< 1000	≤ 1000
O=C(/C=C/c1ccncc1NC(=O)c1cccc(C(F)(F)F)c1)NO [Example I-123, (E)-N-(4-(3-(hydroxyamino)-3-oxoprop-1-enyl)pyridin-3-yl)-3-(trifluoromethyl)benzamide]	< 1000	≤ 1000
CS(=O)(=O)c1cccc(CNc2ccccc2/C=C/C(=O)NO)c1 [Example I-100, (E)-N-hydroxy-3-(2-((3-(methylsulfonyl)benzyl)amino)phenyl)acrylamide]	< 1000	≤ 1000
O=C(/C=C/c1ccccc1NC(=O)c1cnn(-c2ccc(Cl)cc2)c1C(F)(F)F)NO [Example I-266, (E)-1-(4-chlorophenyl)-N-(2-(3-(hydroxyamino)-3-oxoprop-1-en-1-yl)phenyl)-5-(trifluoromethyl)-1H-pyrazole-4-carboxamide]	< 1000	≤ 1000
O=C(/C=C/c1ccccc1NCc1cccc(N2CCOCC2)c1)NO [Example I-97, (E)-N-hydroxy-3-(2-((3-morpholinobenzyl)amino)phenyl) acrylamide]	< 1000	≤ 1000
O=C(/C=C/c1ccccc1NCc1ccccc1)NO [Example I-40]	< 1000	≤ 1000
Cc1ccc(N2CCN(c3ccccc3/C=C/C(=O)NO)C(=O)C2)cc1 [Example I-533, (E)-N-hydroxy-3-(2-(2-oxo-4-(p-tolyl)piperazin-1-yl)phenyl)acrylamide]	< 1000	≤ 1000
O=C(/C=C/c1ccccc1NCc1nccs1)NO [Example I-91, (E)-N-hydroxy-3-(2-((thiazol-2-ylmethyl)amino)phenyl)acrylamide]	< 1000	≤ 1000
Cc1nc(C)c(CN2CCN(c3ccccc3/C=C/C(=O)NO)CC2)s1 [Example I-315, (E)-3-(2-(4-((2,4-dimethylthiazol-5-yl)methyl)piperazin-1-yl)phenyl)-N-hydroxyacrylamide]	< 1000	≤ 1000
Cc1cc(CNc2ccccc2/C=C/C(=O)NO)n(C)n1 [Example I-94, (E)-3-(2-(((1,3-dimethyl-1H-pyrazol-5-yl)methyl)amino)phenyl)-N-hydroxyacrylamide]	< 1000	≤ 1000
O=C(/C=C/c1ccccc1NC(=O)c1cnc(-c2ccccn2)s1)NO [Example I-312, (E)-N-(2-(3-(hydroxyamino)-3-oxoprop-1-en-1-yl)phenyl)-2-(pyridin-2-yl)thiazole-5-carboxamide]	< 1000	≤ 1000
CC(C)(C)OC(=O)N1CC2(CCCN2c2ccccc2/C=C/C(=O)NO)C1 [Example I-542, tert-butyl (E)-5-(2-(3-(hydroxyamino)-3-oxoprop-1-en-1-yl)phenyl)-2,5-diazaspiro[3.4]octane-2-carboxylate]	< 1000	≤ 1000
O=C(/C=C/c1ccccc1NC(=O)c1csc(-c2cccnc2)n1)NO [Example I-75, (E)-N-(2-(3-(hydroxyamino)-3-oxoprop-1-en-1-yl)phenyl)-2-(pyridin-3-yl)thiazole-4-carboxamide]	< 1000	≤ 1000
O=C(/C=C/c1ccccc1NC(=O)c1ccccc1Oc1ccc(F)cc1)NO [Example I-306, (E)-2-(4-fluorophenoxy)-N-(2-(3-(hydroxyamino)-3-oxoprop-1-en-1-yl)phenyl)benzamide]	< 1000	≤ 1000
O=C(/C=C/c1ccccc1N1CCN(C(=O)c2ccc3[nH]ccc3c2)CC1)NO [Example I-208, (E)-3-(2-(4-(1H-indole-5-carbonyl)piperazin-1-yl)phenyl)-N-hydroxyacrylamide]	< 1000	≤ 1000
O=C(NO)/C(F)=C/c1ccccc1NC(=O)c1ccccc1Oc1ccccc1 [Example I-325, (Z)—N-(2-(2-fluoro-3-(hydroxyamino)-3-oxoprop-1-enyl)phenyl)-2-phenoxybenzamide hydrochloride]	< 1000	≤ 1000
O=C(/C=C/c1ccccc1NC(=O)c1ccccc1Oc1ccc(C(F)(F)F)cc1)NO [Example I-303, (E)-N-(2-(3-(hydroxyamino)-3-oxoprop-1-en-1-yl)phenyl)-2-(4-(trifluoromethyl)phenoxy)benzamide]	< 1000	≤ 1000
Cc1cc(C(=O)NC2CCN(c3ccccc3/C=C/C(=O)NO)CC2)n[nH]1 [Example I-134, (E)-N-(1-(2-(3-(hydroxyamino)-3-oxoprop-1-en-1-yl)phenyl)piperidin-4-yl)-5-methyl-1H-pyrazole-3-carboxamide]	< 1000	≤ 1000
Cn1cncc1CN1CCN(c2ccccc2/C=C/C(=O)NO)CC1 [Example I-180, (E)-N-hydroxy-3-(2-(4-((1-methyl-1H-imidazol-5-yl)methyl)piperazin-1-yl)phenyl)acrylamide]	< 1000	≤ 1000
O=C(/C=C/c1ccccc1NC(=O)C1CCC2(CC1)CC2)NO [Example I-84, (E)-N-(2-(3-(hydroxyamino)-3-oxoprop-1-en-1-yl)phenyl)spiro[2.5]octane-6-carboxamide]	< 1000	≤ 1000
O=C(/C=C/c1ccccc1NCc1c[nH]nc1-c1ccc(C(F)(F)F)cc1)NO [Example I-104]	< 1000	≤ 1000
O=C(/C=C/c1ccccc1N1CCN(S(=O)(=O)c2ccc(OC(F)(F)F)cc2)CC1=O)NO [Example I-527, (E)-N-hydroxy-3-(2-(2-oxo-4-((4-(trifluoromethoxy)phenyl)sulfonyl)piperazin-1-yl)phenyl)acrylamide]	< 1000	≤ 1000
O=C(/C=C/c1ccccc1N1CCN(C(=O)c2cnn3c2OCCC3)CC1)NO [Example I-204, (E)-3-(2-(4-(6,7-dihydro-5H-pyrazolo[5,1-b][1,3]oxazine-3-carbonyl)piperazin-1-yl)phenyl)-N-hydroxyacrylamide]	< 1000	≤ 1000
O=C(/C=C/c1ccccc1NC(=O)c1cccc(C(F)(F)F)c1)NO [Example I-41, (E)-N-(2-(3-(hydroxyamino)-3-oxoprop-1-en-1-yl)phenyl)-3-(trifluoromethyl)benazmide]	< 1000	≤ 1000
COc1ccccc1Oc1ccccc1C(=O)Nc1ccccc1/C=C/C(=O)NO [Example I-304, (E)-N-(2-(3-(hydroxyamino)-3-oxoprop-1-en-1-yl)phenyl)-2-(2-methoxyphenoxy)benzamide]	< 1000	≤ 1000
